Reference: US20120214842A1, “METHODS FOR TREATING DISEASES OF THE RETINA” (priority 2011, published 2012)

Test system: ABCA4/RDH8 mouse model
Experiment: Light-induced retinal degeneration in ABCA4/RDH8 mouse model (ERG, retinal histology, SLO autofluorescence)
Type: in vivo
Conditions: 10 mg/kg twice daily IP, 10,000 lux light for 30 min on day 3
Experimental: The invention is illustrated by the following example. The compound of the invention was tested with the following experimental protocol: (1) Mice are dosed twice daily at 10 mg/kg or vehicle, IP. (2) On day 3, mice are exposed to 10,000 lux light for 30 min, 2 h after the first dosing and 6 h before the last dosing. (3) On day 11 ERG measurements are taken. (4) On day 12, mice are sacrificed for retinal histology. The ERG functional assay measures the functional integrity of retina. […] In the model, autofluorescence appears as the retina degenerates.

loss of ERG function (functional integrity of retina) (ERG on day 11, vs vehicle, FIG. 1): prevents loss of ERG function
photoreceptor cell loss (retinal histology grade; higher grade indicates more loss) (histology on day 12, FIG. 2): protects photoreceptor cell loss
Structure (SMILES): Cn1cc(-c2ccncc2)c(-c2ccc(OCc3ccc4ccccc4n3)cc2)n1 [MP-10, 2-[4-(1-methyl-4-pyridin-4-yl-1H-pyrazol-3-yl)-phenoxymethyl]-quinoline]
autofluorescence in retina measured by SLO (FIG. 3): reduces the appearance of autofluorescence
